Results taken from patent US11382946B2, “Multi-functional peptides and use thereof” (NOVACELL TECHNOLOGY INC., priority 2019, dated 2022).
Non-standard residues stand in square brackets, D forms with d. Residues, ends and D or L forms follow the SMILES beside them. 2Nal = N[C@@H](Cc1ccc2ccccc2c1)C(=O)O; Nle = CCCC[C@H](N)C(=O)O

Key:
[1] = target: T1, FPR2 (Homo sapiens, UniProt P25090); assay: FPR2 activation by intracellular calcium ion increase (Fura-2/AM) in FPR2-RBL cells; format: cell-based; conditions: RBL cells overexpressing FPR2
T1 construct: expressed in transfected cells; host or cells: RBL cells overexpressing FPR2 (FPR2-RBL)
T1 sequence (P25090 1-351): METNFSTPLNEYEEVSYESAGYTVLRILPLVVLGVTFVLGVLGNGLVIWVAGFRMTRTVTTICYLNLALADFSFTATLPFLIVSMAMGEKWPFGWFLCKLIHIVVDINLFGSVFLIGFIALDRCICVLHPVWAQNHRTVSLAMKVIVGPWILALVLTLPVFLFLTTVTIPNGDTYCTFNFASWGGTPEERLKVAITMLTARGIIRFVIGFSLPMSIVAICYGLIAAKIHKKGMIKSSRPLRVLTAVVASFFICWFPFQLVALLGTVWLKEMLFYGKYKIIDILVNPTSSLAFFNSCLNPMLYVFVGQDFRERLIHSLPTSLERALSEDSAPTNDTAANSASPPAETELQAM
Procedure: The present inventors observed a change in calcium ion permeability of the candidate peptides according to an embodiment of the present invention in order to determine whether they can activate the immunomodulatory function in a body or not. Particularly, intracellular concentration of calcium ions was measured to confirm that the peptide activates FPR2. RBL cells that do neither express FPR1 nor FPR2, RBL cells overexpressed FPR1 (FPR1-RBL) and RBL cells that overexpressed FPR2 (FPR2-RBL) were used and Fura-2/AM which is a fluorophore having high binding affinity to calcium in order to measure intracellular calcium ion level sensitively. For this purpose, cells were cultured in RPMI medium supplemented with 10% fetal bovine serum and harvested by centrifugation in log phase (mid-log phase, 1-3×10^7 cells/ml), and then washed several times with RPMI medium not supplemented with fetal bovine serum, and then the cells were resuspended in RPMI medium to 1×10^7 cells/ml. Subsequently, a final 3 μM concentration of Fura-2/AM was added and the cells were incubated for 45 minutes in a 37° C., 5% CO2 incubator. After the appropriated time, the cells are harvested, washed again with RPMI medium, and then suspended in the appropriate amount of RPMI medium supplemented with 250 μM of sulfinpyrazone, in order to prevent loss of Fura-2 entering the cells. About 2×10^6 cells were taken each time, harvested by rapid centrifugation, and resuspended in 1 ml of a Locke solution without addition of calcium ions and EGTA added, and the ratio of absorbance at two wavelengths of 340 nm and 380 nm on a spectrophotometer were monitored by treating the peptides according to an embodiment of the present invention at different concentrations (1 μM, 0.1 μM, and 0.01 μM) at intervals of about 1 minute, and then the difference in absorbance at two wavelengths was investigated. It was converted to the concentration of free calcium ions into cells according to the method of Grynkiewicz.

[2] = system: P. aeruginosa; format: cell-based, Pseudomonas aeruginosa; conditions: 18 h
Procedure: (§1) The present inventors evaluated […] in order to select peptides showing excellent performance among various peptides synthesized in the Example 1. Particularly, in order to measure the antimicrobial activity of the peptide, after preparing Gram-positive bacteria Staphylococcus aureus (S. aureus) and Gram-negative bacteria Pseudomonas aeruginosa (P. aeruginosa), the bacteria were plated on agar plate medium by fourth streaking and cultured overnight in a 36° C. incubator. The next day, the strain colonies produced on the agar plate medium were inoculated into 3 ml nutrient medium and cultured overnight in a stirring incubator at 36° C. and 220 rpm. The next day, the bacteria were diluted to measure absorbance at 600 nm, adjusted to OD600=0.5, and diluted in a 1:100 ratio in nutrient medium. Then, the peptides prepared in the above Examples were serially diluted in concentrations of 0, 1.25, 2.5, 5, 10, and 20 μM in a nutrient medium to prepare 1 ml each, and then inoculated with 1 ml of the diluted bacteria. Subsequently, the mixture was stirred under conditions of 36° C. and 220 rpm, and incubated for 18 hours, and absorbance at 600 nm was measured.
(§2) As a result, 20 peptides showing high antibacterial activity against P. aeruginosa and S. aureus) were selected (FIGS. 2 and 3).

[3] = system: S. aureus; format: cell-based, Staphylococcus aureus; conditions: 18 h
Procedure: as §1, §2

SMILES | EC50 [1] | Antimicrobial activity (IC50, μg/ml) P. aeruginosa [2] | Antimicrobial activity (IC50, μg/ml) S. aureus [3]
CCCC[C@H](NC(=O)[C@H](CCCNC(=N)N)NC(=O)[C@H](Cc1c[nH]c2ccccc12)NC(=O)[C@H](Cc1c[nH]c2ccccc12)NC(=O)[C@H](CCCNC(=N)N)NC(=O)[C@H](Cc1ccc2ccccc2c1)NC(C)=O)C(=O)N[C@@H](Cc1c[nH]c2ccccc12)C(=O)N[C@@H](Cc1c[nH]c2ccccc12)C(=O)N[C@@H](CCCNC(=N)N)C(=O)N[C@@H](Cc1c[nH]c2ccccc12)C(=O)N[C@H](CCSC)C(N)=O [Peptide V23_Ac, Ac-ZRWWR-Nle-WWRWm-NH2] (Ac-[2Nal]RWWR[Nle]WWRW[dM]-NH2) | 0.0613 µM | >50 µg/mL | 13.3 µg/mL
CSCC[C@@H](NC(=O)[C@H](Cc1c[nH]c2ccccc12)NC(=O)[C@H](CCCNC(=N)N)NC(=O)[C@H](Cc1c[nH]c2ccccc12)NC(=O)[C@H](Cc1c[nH]c2ccccc12)NC(=O)[C@H](CCCNC(=N)N)NC(=O)[C@H](CCCNC(=N)N)NC(C)=O)C(N)=O [Peptide V24_Ac, Ac-RRWWRWm-NH2] (Ac-RRWWRW[dM]-NH2) | 0.0586 µM | 47.8 µg/mL | 24.0 µg/mL
